Converted amounts (≈) assume the structure as drawn.
Test system: cyprid larvae of the barnacle species Balanus amphitrite
Assay: Barnacle settlement inhibition test, enzymes in solution
Assay type: in vivo
Details: reference compound in solution; concentration at which 50 % settlement reduction takes place
Excerpt: The barnacle settlement test determines settlement inhibitory activity of biocidal compounds. For this test mass reared cyprid larvae of the barnacle species Balanus amphitrite are used. Adult barnacles, kept under standardised conditions, are forced to produce naupliar larvae that are collected and grown up separately at constant temperature and a fixed light:dark period. When larvae reach the cyprid stage, which is the settling phase, they are collected and set apart prior to testing.
Test compounds are usually tested in a range of concentrations prepared directly in seawater or after pre-dissolution in a suitable solvent. Settlement tests are carried out in polystyrene multiwell plates. Wells contain either 1 mL of a test solution or 1 mL of a control solution. Plates are incubated for 24 - 48 hours under constant temperature and light:dark regime to allow settlement and metamorphosis of the cyprids.
After incubation the wells are screened and numbers of settled and non-settled larvae counted using a stereo microscope. Numbers of settled larvae are expressed as a percentage of total larvae in the well. Average % settlement is calculated in four replicates. Subsequently a settlement response curve in relation to substance concentration is drawn and an EC50 value, concentration at which 50 % settlement reduction takes place, calculated. […]

Compound: CCCCCCCCn1sc(Cl)c(Cl)c1=O [Seanine 211]
- EC50 value: 0.4 µg/mL (≈ 1.42 µM)

— patent publication EP1661955A1, “Antifouling coating comprising a polymer with functional groups bonded to an enzyme” (Nederlandse Organisatie voor …, priority 2004, dated 2006)
